# According to US20250312468A1, “ANTI-PROTAC ANTIBODIES AND COMPLEXES” (Merck Patent GmbH, priority 2021, published 2025):
# Columns and labels:
# [1] = biological target: MIC2; experiment: SPR binding of PROTACs to immobilized antibody MIC2; conditions: MIC2, 1:1 kinetic binding model
# Method: (§1) The binding affinities of hit antibodies MIC1 and MIC2 to a diverse set of VH032-based PROTACs (FIGS. 8A-8B) was determined by surface plasmon resonance (SPR) in a Biacore T200 instrument. The running buffer consist of PBS, 0.05% Tween-20, 2% DMSO and temperature and flow rate were set to 30° C. and 30 μL/min, respectively. The assay setup is depicted exemplarily in FIG. 7A. CM5 sensor chips were coated with antibody (=ligand; 2500 RU) using standard EDC/NHS chemistry. PROTACs (=analytes) were serially diluted (1 μM-1.9 nM) in running buffer, injected to the instrument in consecutive runs and were captured by the antibody resulting in an increase of the corresponding SPR response. After the association step (300 s), running buffer was injected for 600 s and the PROTAC dissociated from the antibody leading to signal decrease. After each run, residual bound PROTAC was removed from the immobilized antibody by injection of 10 mM glycine/HCl, pH 1.5 for 2×30 s regenerating the antibody for the next association and dissociation cycle. To compensate for matrix effects, the measured SPR response signal was subtracted by the analyte response to an inactivated (EDC/NHS, ethanol amine) reference surface omitting the ligand. Furthermore, a DMSO solvent correction was performed and analyte response was subtracted by the running buffer signal. The corrected response was fitted by a 1:1 kinetic binding model yielding the on- (kon) and off-rate (koff) of the PROTAC, as well as its dissociation constant (KD).
# [2] = biological target: MIC1; experiment: SPR binding of PROTACs to immobilized antibody MIC1; conditions: binding of PROTACs to MIC1, steady-state model
# Method: as §1, with “The corrected response was fitted by a 1:1 kinetic binding model yielding the on- (kon) and off-rate (koff) of the PROTAC, as well as its dissociation constant (KD).” left out
# [3] = biological target: CD33xMIC7; experiment: SPR affinity of VHH clone (antibody fusion) to PROTACs; conditions: CD33xMIC7 immobilized, 25° C., read-out: KD [M] for antibody binding to PROTAC
# Method: (§2) The kinetic and affinity parameters of protein-PROTAC interactions were evaluated by SPR. The anti-PROTAC VHH clones MIC5-MIC14 were immobilized as CD33 or CLL1 antibody fusion (the manufacturing of fusion proteins and the used linker is described in chapter 7.9) onto a CM5 (Series S) sensor chip via the standard amine coupling procedure, at 25° C. Prior to immobilization, the carboxymethylated surface of the chip was activated with 400 mM 1-ethyl-3-(3-dimethylaminopropyl)-carbodiimide and 100 mM N-hydroxysuccinimide for 7 min. Hit anti-PROTAC VHH as CD33 and CLL1 antibody fusions were diluted to 10 μg/ml in 10 mM Acetate at pH 4.5 and immobilized on the activated surface chip for 7 min, in order to reach 3,000 to 6,000 response units (RU). The remaining activated carboxymethylated groups were blocked with a 10 min injection of 1 M ethanolamine pH 8. HBS-N, which consists of 10 mM HEPES pH 7.4 and 150 mM NaCl, was used as the background buffer during immobilization. PROTACs were prediluted in DMSO, diluted 1:50 in running buffer (12 mM phosphate pH 7.4, 137 mM NaCl, 2.7 mM KCl, 0.05% Tween20, 2% DMSO) and injected at ten different concentrations using two-fold dilution series, from 1 μM to 0.002 μM. A DMSO solvent correction (1%-3%) was performed to account for variations in bulk signal and to achieve high-quality data. Interaction analysis cycles consisted of a 300 sec sample injection (30 μL/min; association phase) followed by 900 sec of buffer flow (dissociation phase).
# (§3) All sensorgrams were processed by first subtracting the binding response recorded from the control surface (reference flow-channel), followed by subtracting of the buffer blank injection from the active flow-channel (target protein immobilized). All datasets were fit to a simple 1:1 Langmuir interaction model to determine the kinetic rate constants. Experiments were performed on a Biacore 8k+ (Cytiva, Uppsala, Sweden) at 25° C. and the interactions were evaluated using the provided Biacore Insight Evaluation software.
# [4] = biological target: CLL1xMIC7; experiment: as above; conditions: CLL1xMIC7 immobilized, 25° C., read-out: KD [M] for antibody binding to PROTAC
# Method: as §2, §3
# [5] = tested on: HEPG2 cells; experiment: CellTiter-Glo cell viability assay (VHH-based PAX); conditions: HEPG2, PROTAC alone
# Method: (§4) Several cell viability experiments were performed following the procedure described below: Cells were seeded in different media into white cell culture-treated flat and clear bottom multiwell plates followed by overnight incubation in a humid chamber at 37° C. and 5% CO2. Complexation was performed as described in chapter 7.4.
# (§5) The solutions were added to the cells based on the antibody concentration using nanodrop dispension using a Tecan D300e Digital Dispenser and all wells were normalized to the same volume using 0.3% TW20 in PBS pH 7.4 and DMSO to a final solvent concentration of 0.05% DMSO and 0.003% TW20. Incubation was performed at 37° C. at 5% or 10% CO2 dependent on the medium. The assay was developed after 3 days if not otherwise stated using CellTiter-Glo Luminescent Cell Viability Assay as described in the manufacturer's protocol. In brief, the plates were equilibrated to room temperature for 30 minutes. 100 mL CellTiter-Glo Buffer were added to the CellTiter-Glo Substrate Flask and mixed well. 30 μL of the reagent was transferred to each well. After incubation for 3 minutes at room temperature while shaking at 550 rpm, the plate was incubated for another 10 minutes at room temperature. The luminescence was read on an Envision reader from Perkin Elmer. Solvent alone and Bortezomib (1.0E-05 M) served as high control (100% viability) and low control (0% viability), respectively. Raw data were converted into percent cell viability relative to the high and low control, which were set to 100% and 0%, respectively. […] The concentration corresponds to the concentration of PROTACs in the PAX.
# [6] = tested on: NCIN87; experiment: CellTiter-Glo cell viability assay (VHH-based PAX); conditions: NCIN87, PROTAC alone
# Method: as §4, §5
# [7] = tested on: SKBR3; experiment: CellTiter-Glo cell viability assay (VHH-based PAX); conditions: SKBR3, PROTAC alone
# Method: as §4, §5
# [8] = tested on: MDAMB468 cells; experiment: CellTiter-Glo cell viability assay (VHH-based PAX); conditions: MDAMB468, PROTAC alone
# Method: as §4, §5
# [9] = tested on: OVCAR3; experiment: CellTiter-Glo cell viability assay (VHH-based PAX); conditions: OVCAR3, PROTAC alone
# Method: as §4, §5
# [10] = tested on: A549; experiment: CellTiter-Glo cell viability assay (VHH-based PAX); conditions: A549, PROTAC alone
# Method: as §4, §5
# [11] = tested on: A431; experiment: CellTiter-Glo cell viability assay (VHH-based PAX); conditions: A431, PROTAC alone
# Method: as §4, §5
# [12] = tested on: MCF7; experiment: CellTiter-Glo cell viability assay (VHH-based PAX); conditions: MCF7, PROTAC alone
# Method: as §4, §5
# [13] = tested on: HCC827; experiment: CellTiter-Glo cell viability assay (VHH-based PAX); conditions: HCC827, PROTAC alone
# Method: as §4, §5
# [14] = tested on: SKOV3; experiment: CellTiter-Glo cell viability assay (VHH-based PAX); conditions: SKOV3, PROTAC alone
# Method: as §4, §5
Kd [3],Kd [4],IC50 [5],IC50 [7],IC50 [8],IC50 [9],IC50 [10],IC50 [11],IC50 [12],IC50 [13],IC50 [14],Compound,Kd [1],koff [1],kon [1],Kd [2],IC50 [6]
,,,,,,,,,,,Cc1ncsc1-c1ccc(CNC(=O)[C@@H]2C[C@@H](O)CN2C(=O)[C@@H](NC(=O)COCCOCCOCCNC(=O)C[C@@H]2N=C(c3ccc(Cl)cc3)c3c(sc(C)c3C)-n3c(C)nnc32)C(C)(C)C)cc1 [MZ1],0.12 nM,NM/1.30E−04 1/s,NM/1.10E+06 1/Ms,4.9 nM,
3.8e-09 M,< 1e-10 M,14 nM,3.6 nM,7.1 nM,2.8 nM,17 nM,3 nM,1.5 nM,6.5 nM,2.4 nM,Cc1ncsc1-c1ccc(CNC(=O)[C@@H]2C[C@@H](O)CN2C(=O)[C@@H](NC(=O)COCC(C)(COCCOCCOCCNC(=O)C[C@@H]2N=C(c3ccc(Cl)cc3)c3c(sc(C)c3C)-n3c(C)nnc32)COCCOCCOCCNC(=O)C[C@@H]2N=C(c3ccc(Cl)cc3)c3c(sc(C)c3C)-n3c(C)nnc32)C(C)(C)C)cc1 [SIM1],,,,,4 nM
